In article PMC7356104, “Oral Administration of Artemisone for the Treatment of Schistosomiasis: Formulation Challenges and In Vivo Efficacy” (Pharmaceutics, 2020):
Values after ≈ are worked out from the molar mass of the structure shown. Like-named read-outs stand apart in the source and are kept apart here. Each block holds one compound with its values, some of them ahead of it.

How the values were obtained:
[1] = system: S. mansoni; settings: cited from earlier work
[2] = Solubility of artemisone in organic solvents, excipients and SMEDDS (HPLC); assay type: physicochemical; settings: thermodynamic from solid
Procedure: The solubility of artemisone in organic solvents and lipid excipients was determined according to the following procedure: 200 mg artemisone/1.0 mL excipient were placed on an orbital mixing heating plate (Torrey Pines Scientific, Carlsbad, CA, USA) at 25 °C for 24 h under light exclusion. Samples were centrifuged and the supernatant filtered and diluted with ethanol as necessary before HPLC analysis. Samples were prepared in triplicates.
(§1) Artemisone was quantified with high-performance liquid chromatography (HPLC) (Agilent/HP 1100 HPLC series, high-pressure pump, degasser, UV-VIS detector and autosampler, now Agilent Technologies, Inc., Santa Clara, CA, USA), using a method we developed and validated according to the ICH guidelines, over a range of 10–500 µg artemisone/mL (Table 1).

[3] = Storage stability of artemisone in SMEDDS and PBS at 30 °C (HPLC); assay type: physicochemical; settings: 80 µg/mL in PBS pH 6.5, 30 °C, light exclusion
Procedure: as §1
Artemisone (50 mg/g) was dissolved in SMEDDS-100. For SMEDDS-50-ART and SMEDDS-20-ART, PBS was added to the drug-loaded formulation to give the microemulsions, containing 25 mg/g and 10 mg/g artemisone, respectively. A solution of 80 µg/mL artemisone in PBS pH 6.5 Ph.Eur. was prepared and used as control, the pH found for SMEDDS-50 and SMEDDS-20 also being around 6.5. Triplicates of all three preparations were stored in glass vials with Teflon sealed lids at 30 °C under light exclusion. Samples were taken after 14, 28, 42, 56, and 92 days and analyzed via HPLC to monitor drug stability.

[4] = system: P. falciparum NF54 parasites; experiment: In vitro efficacy on P. falciparum in culture; assay type: cell-based, Plasmodium falciparum; settings: 48 h
Procedure: P. falciparum NF54 parasites were cultivated at 4% hematocrit in RPMI 1640 medium, 0.5% Albumax II (Invitrogen, Carlsbad, CA, USA), 0.25% sodium bicarbonate, and 0.1 mg/mL gentamicin. 200 µL of parasite suspension at 1% parasitemia were incubated in a Nunc microplate, in 96 flat-bottom wells, at 37 °C, in an atmosphere of 5% oxygen, 5% carbon dioxide and 90% nitrogen. Drug dilutions were added in triplicates in 25 µL. After 48 h P. falciparum parasitaemias were estimated by microscopic determination of the percent of parasitized erythrocytes in a total of 5000 erythrocytes, using Giemsa stained blood smears that were prepared from triplicate individual wells.

[5] = H2O; cited from earlier work
[6] = design: method as in earlier work; settings: cited from earlier work
[7] = design: method as in PMID 21596127; settings: oral Pheroid technology formulation, mice; cited from earlier work
[8] = similar procedure (single oral dose)

SMILES: CO[C@H]1O[C@@H]2O[C@@]3(C)CC[C@H]4[C@H](C)CC[C@@H]([C@H]1C)[C@@]24OO3 [artemether]
- reduction of worm load [1, 8]: more than 90%

SMILES: C[C@H]1[C@H](N2CCSCC2)O[C@@H]2O[C@@]3(C)CC[C@H]4[C@H](C)CC[C@@H]1[C@@]24OO3 [artemiside]
- reduction of worm load [1, 8]: more than 90%

- solubility at 24 h ([2]; oil or lipid, in Polysorb ID 46, 25 °C): 55 mg/mL (≈ 137 mM)
- solubility at 24 h ([2]; oil or lipid, in medium chain mono- and diglycerides (Capmul MCM), 25 °C): 62.5 mg/mL (≈ 156 mM)
- solubility at 24 h ([2]; oil or lipid, in medium chain triglycerides (MCT), 25 °C): 22.5 mg/mL (≈ 56 mM)
- solubility at 24 h ([2]; organic solvent or mixture, in DMF, 25 °C): > 100 mg/mL
- solubility at 24 h ([2]; organic solvent or mixture, in DMSO, 25 °C): > 100 mg/mL
- solubility at 24 h ([2]; organic solvent or mixture, in acetone, 25 °C): > 100 mg/mL
- solubility at 24 h ([2]; organic solvent or mixture, in dichloromethane, 25 °C): > 100 mg/mL
- solubility at 24 h ([2]; organic solvent or mixture, in ethanol, 25 °C): 30 mg/mL (≈ 74.7 mM)
- solubility at 24 h ([2]; organic solvent or mixture, in hexane, 25 °C): 0.8 mg/mL (≈ 1.99 mM)
- solubility at 24 h ([2]; organic solvent or mixture, in methanol, 25 °C): 50 mg/mL (≈ 125 mM)
- solubility at 24 h ([2]; organic solvent or mixture, in propylene glycol, 25 °C): 8.5 mg/mL (≈ 21.2 mM)
- artemisone recovered after three months [3]: 51.5 ± 0.4%
SMILES: C[C@H]1[C@H](N2CCS(=O)(=O)CC2)O[C@@H]2O[C@@]3(C)CC[C@H]4[C@H](C)CC[C@@H]1[C@@]24OO3 [artemisone, 4-[(1R,4S,5R,8S,9R,10R,12R,13R)-1,5,9-trimethyl-11,14,15,16-tetraoxatetracyclo-hexadecan-10-yl]-1,4-thiazinane1,1-dioxide]
- concentration at which parasitaemia was completely blocked [4]: below 11 ng/mL
- ED50 ([4]; parasitaemia by Giemsa smears): 1 to 2 ng/mL
- aqueous solubility [5]: 0.089 mg/mL (≈ 0.222 mM)
- degradation in aqueous medium ([6]; pH 3): complete degradation was observed within one week
- intact compound remained after one month ([6]; pH 5): 20%
- intact compound remained after one month ([6]; pH 7.4): 75%
- reduction of worm load [1, 8]: more than 90%
- higher absorption of artemisone compared to an aqueous vehicle containing 10% DMSO [7]: 5.57 fold

SMILES: C[C@H]1[C@H](OC(=O)CCC(=O)O)O[C@@H]2O[C@@]3(C)CC[C@H]4[C@H](C)CC[C@@H]1[C@@]24OO3 [artesunate]
- reduction of worm load ([1]; single oral dose 400 mg/kg in 3% ethanol and 7% Tween 80, 21 days post-infection): 66%
